Assay results taken from doi:10.1101/2024.04.15.589505v1 (biorxiv, 2024).

Experiments:
[1] = molecular target: T1, DENV2 protease (DENV2pro; DENV serotype 2 NS2B-NS3 protease construct, GGGGSGGGG-linked) (Dengue virus 2 Thailand/16681/84, UniProt P29990); assay: biochemical
[2] = molecular target: T1, DENV2 protease (DENV2pro; DENV serotype 2 NS2B-NS3 protease construct, GGGGSGGGG-linked); assay: biochemical; format: binding

T1 sequence (P29990 1394-1440 limits assumed): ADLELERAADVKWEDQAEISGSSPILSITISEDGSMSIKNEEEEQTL
T1 sequence (P29990 1476-1660 limits assumed): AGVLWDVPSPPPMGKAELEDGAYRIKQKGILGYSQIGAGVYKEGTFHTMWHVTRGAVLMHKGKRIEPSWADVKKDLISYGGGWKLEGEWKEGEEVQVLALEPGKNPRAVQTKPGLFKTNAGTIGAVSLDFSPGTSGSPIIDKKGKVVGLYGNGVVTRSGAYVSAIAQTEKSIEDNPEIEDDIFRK

| SMILES | IC50 [1] [µM] | Kd [2] [nM] |
| --- | --- | --- |
| NC(=O)c1cccc(NC(=O)[C@@H](NC(=O)c2ccc(Oc3ccccc3)cc2)c2ccc(OCc3ccccc3)cc2)c1 [compound 4] | 5.37 ± 0.73 |  |
| N=C(N)NCCC[C@H](NC(=O)[C@H](CCCNC(=N)N)NC(=O)c1ccccc1)B(O)O [compound 1] | 0.68 ± 0.01 |  |
| CC(C)(C)NC(=O)C(=O)/C=C/c1c[nH]c2ccccc12 [compound 5] | 37.1 ± 1.29 |  |
| NC(=O)c1ccc(CNC(=O)[C@@H](NC(=O)c2ccc(-c3cccs3)s2)c2ccc(OCc3ccccc3)cc2)cc1 [compound 23] |  | 2400 ± 600 |
| CCCCCC(=O)N[C@H](C(=O)NCc1ccc(NC(=N)N)cc1)c1ccc(OCc2ccccc2)cc1 [compound 3] | 17.6 ± 2.15 |  |
